Laboratory results: publication PMC5674183 (2017)

How the values were obtained:
[1] = tested on: dual labeled ds DNA (DNA, hairpin, hexaethylene glycol (HEG) linker between 10 and 11) TATAGCTATATATAGCTATA; assay: FRET melting; conditions: K+ (60 mM K-cacodylate), pH 6 (Table 1; also pH 7), 1 μM compound, 100 nM DNA
[2] = tested on: dual labeled BCL-2-C (DNA, i motif) CAGCCCCGCTCCCGCCCCCTTCCTCCCGCGCCCGCCCCT; assay: FRET melting; conditions: K+ (60 mM K-cacodylate); pH 6 (folded at pH 4.8); 1 μM compound, 100 nM DNA
[3] = tested on: 5′-TAMRA-BCL-2-C (DNA, i motif) CAGCCCCGCTCCCGCCCCCTTCCTCCCGCGCCCGCCCCT; assay: fluorescence quenching titration; conditions: K+ (60 mM K-cacodylate); pH 6 (folded at pH 4.8), 25 °C, 250 nM DNA
[4] = tested on: 5′-TAMRA-c-MYC-C (DNA, i motif) TCCCCACCTTCCCCACCCTCCCCACCCTCCCCA; assay: fluorescence quenching titration; conditions: K+ (60 mM K-cacodylate); pH 6 (folded at pH 4.8), 25 °C, 250 nM DNA
[5] = tested on: 5′-TAMRA-BCL-2-G (DNA, G4) AGGGGCGGGCGCGGGAGGAAGGGGGCGGGAGCGGGGCGT; assay: fluorescence quenching titration; conditions: K+ (60 mM K-cacodylate); pH 7, 25 °C, 250 nM DNA
[6] = tested on: 5′-TAMRA-c-MYC-G (DNA, G4) TGGGGAGGGTGGGGAGGGTGGGGAAGGTGGGGA; assay: fluorescence quenching titration; conditions: K+ (60 mM K-cacodylate); pH 7, 25 °C, 250 nM DNA
[7] = tested on: 5′-TAMRA-ds DNA (DNA, hairpin, hexaethylene glycol (HEG) linker between 10 and 11) TATAGCTATATATAGCTATA; assay: fluorescence quenching titration; conditions: K+ (60 mM K-cacodylate); pH 7, 25 °C, 250 nM DNA; up to 30 μM
[8] = tested on: 3′-TAMRA-BCL-2-C (DNA, i motif) CAGCCCCGCTCCCGCCCCCTTCCTCCCGCGCCCGCCCCT; assay: fluorescence quenching titration; conditions: K+ (60 mM K-cacodylate); pH 6 (folded at pH 4.8), 25 °C, 250 nM DNA
[9] = tested on: 3′-TAMRA-c-MYC-C (DNA, i motif) TCCCCACCTTCCCCACCCTCCCCACCCTCCCCA; assay: fluorescence quenching titration; conditions: K+ (60 mM K-cacodylate); pH 6 (folded at pH 4.8), 25 °C, 250 nM DNA
[10] = tested on: 3′-TAMRA-BCL-2-G (DNA, G4) AGGGGCGGGCGCGGGAGGAAGGGGGCGGGAGCGGGGCGT; assay: fluorescence quenching titration; conditions: K+ (60 mM K-cacodylate); pH 7, 25 °C, 250 nM DNA
[11] = tested on: 3′-TAMRA-c-MYC-G (DNA, G4) TGGGGAGGGTGGGGAGGGTGGGGAAGGTGGGGA; assay: fluorescence quenching titration; conditions: K+ (60 mM K-cacodylate); pH 7, 25 °C, 250 nM DNA
[12] = tested on: BCL-2-C (DNA, i motif) CAGCCCCGCTCCCGCCCCCTTCCTCCCGCGCCCGCCCCT; assay: thiazole orange displacement (fluorescence); conditions: K+ (60 mM K-cacodylate); pH 6 (folded at pH 4.8); 0.5 μM thiazole orange displaced, 0.25 μM DNA
[13] = tested on: BCL-2-G (DNA, G4) AGGGGCGGGCGCGGGAGGAAGGGGGCGGGAGCGGGGCGT; assay: thiazole orange displacement (fluorescence); conditions: K+ (60 mM K-cacodylate); pH 7; 0.5 μM thiazole orange displaced, 0.25 μM DNA
[14] = tested on: c-MYC-C (DNA, i motif) TCCCCACCTTCCCCACCCTCCCCACCCTCCCCA; assay: thiazole orange displacement (fluorescence); conditions: K+ (60 mM K-cacodylate); pH 6 (folded at pH 4.8); 0.5 μM thiazole orange displaced, 0.25 μM DNA
[15] = tested on: c-MYC-G (DNA, G4) TGGGGAGGGTGGGGAGGGTGGGGAAGGTGGGGA; assay: thiazole orange displacement (fluorescence); conditions: K+ (60 mM K-cacodylate); pH 7; 0.5 μM thiazole orange displaced, 0.25 μM DNA
[16] = tested on: h-TELO-C (DNA, i motif) TAACCCTAACCCTAACCCTAACCC; assay: thiazole orange displacement (fluorescence); conditions: K+ (60 mM K-cacodylate); pH 6; thiazole orange displaced, 0.25 μM DNA
[17] = tested on: h-TELO-G (DNA, G4) GGGTTAGGGTTAGGGTTAGGG; assay: thiazole orange displacement (fluorescence); conditions: K+ (60 mM K-cacodylate); pH 7; thiazole orange displaced, 0.25 μM DNA
[18] = tested on: dual labeled c-MYC-G (DNA, G4) TGGGGAGGGTGGGGAGGGTGGGGAAGGTGGGGA; assay: FRET melting; conditions: K+ (60 mM K-cacodylate); pH 7; 1 μM compound, 100 nM DNA

ΔT m ([1]; no shift up to 10 μM) | ΔT m [2] | K d [3] | K d [4] | K d [5] | K d [6] | K d [7] | K d [8] | K d [9] | K d [10] | K d [11] | DC50 [12] | DC50 [13] | DC50 [14] | DC50 [15] | DC50 [16] | DC50 [17] | ΔT m ([1]; no shift up to 15 μM) | ΔT m [18] | Compound
0.94 ± 1 °C | 29 ± 1 °C | 0.3 ± 5% μM | 2.4 ± 5% μM | 7.2 ± 5% μM | 12.5 ± 5% μM | > 25 µM | 2.1 ± 5% μM | 5.9 ± 5% μM | 11.5 ± 5% μM | 16.7 ± 5% μM | 0.9 ± 5% μM | 5.7 ± 5% μM | 2.7 ± 5% μM | 8.5 ± 5% μM | 4 ± 5% μM | 9.8 ± 5% μM |  |  | CN(C)CCCOc1cc(C(=O)NCc2cn(-c3ccc(NC(=O)[C@@H]4CCCN4)cc3)nn2)nc(C(=O)NCc2cn(-c3ccc(NC(=O)[C@@H]4CCCN4)cc3)nn2)c1
 |  | 5.8 ± 5% μM | 9.5 ± 5% μM | 1.9 ± 5% μM | 1.3 ± 5% μM | > 25 µM | 10.5 ± 5% μM | 15.1 ± 5% μM | 4.5 ± 5% μM | 4.1 ± 5% μM | 8.2 ± 5% μM | 2.4 ± 5% μM | 6.8 ± 5% μM | 1.3 ± 5% μM | > 15 µM | 4.7 ± 5% μM | 1.1 ± 1 °C | 16 ± 1 °C | CN(C)CCCOc1cc(C(=O)NCc2cn(-c3cccc(NC(=O)[C@@H]4CCCN4)c3)nn2)nc(C(=O)NCc2cn(-c3cccc(NC(=O)[C@@H]4CCCN4)c3)nn2)c1
 |  |  |  |  |  |  |  |  |  |  | 7.9 ± 5% μM | 9 ± 5% μM | 8.4 ± 5% μM | 10.2 ± 5% μM | 10 ± 5% μM | 8.4 ± 5% μM |  |  | O=C(NCc1cn(-c2ccc(NC(=O)[C@@H]3CCCN3)cc2)nn1)c1cccc(C(=O)NCc2cn(-c3ccc(NC(=O)[C@@H]4CCCN4)cc3)nn2)n1
